# Measured values reported in US20240352021A1 (DANA-FARBER CANCER INSTITUTE, INC., priority 2021, published 2024).
# Assays:
# EGFR L858R = EGFR L858R (Homo sapiens, UniProt P00533, L858R); experiment: EGFR biochemical assay (headed HTRF-based; method describes Z'-LYTE), L858R; conditions: Table 4
# Method: (§1) To measure the IC50 values of compounds herein against EGFR, a Z′-LYTE assay (ThermoFisher) was used. Briefly, 2.5 μL of different concentrations of the compounds in 4% DMSO were added to 5 μL kinase/peptide mixture in each well of a 384-well plate (Corning Cat. #3676). 2.5 μL of 4× ATP solution (4× ATP, 50 mM HEPES, pH 7.5, 0.01% BRIJ-35, 10 mM MgCl2, 1 mM EGTA) were added to each well. The plate was shaken for 30 seconds, and then incubated at room temperature for 60 minutes. 5 μL of a 1:100000 dilution of Development Reagent A was added to each well. The plate was then incubated for 60 mins at room temperature. 5 μL of the stop reagent was then added. The plate was subsequently read on a fluorescence plate reader, and the emissions ratio was calculated to determine the ratio of Ser/Thr 07 phosphorylated by the reaction. Emissions Ratio═Coumarin Emission (443 nm)/Flourescein Emission (520 nm).
# (§2) HTRF-based EGFR assay data are provided below in Table 4.
# EGFR L858R/T790M = EGFR L858R/T790M (Homo sapiens, UniProt P00533, L858R/T790M); experiment: EGFR biochemical assay (headed HTRF-based; method describes Z'-LYTE), L858R/T790M; conditions: Table 4
# Method: as §1, §2
# [1] = biological target: EGFR mutant L858R Ba/F3 cells (Homo sapiens, UniProt P00533, L858R, cells depend on it); experiment: Ba/F3 cell proliferation (Cell Titer Glo), EGFR L858R; assay type: cell-based, murine; conditions: 72 hours, Table 6, read-out: L858R BaF3
# Excerpt: (§3) The EGFR mutant L858R Ba/F3 cells have been previously described (Zhou, W., et al. Nature 462, 2009, 1070-1074). The EGFR C797S and C775S mutations were introduced via site directed mutagenesis using the Quick Change Site-Directed Mutagenesis kit into a vector containing EGFR L858R mutation (Stratagene; La Jolla, CA) according to the manufacturer's instructions. All constructs were confirmed by DNA sequencing. The constructs were then shuttled into the retroviral vector JP1540 by either using the Cre-recombination system (Agilent Technologies, Santa Clara, CA) or the In-fusion HD Cloning kit (Takara Bio USA, Inc.; Mountain view, CA). Ba/F3 cells were then infected with retrovirus per standard protocols, as described previously (Zhou, et al, Nature 2009). Stable clones were obtained by selection in puromycin (2 μg/ml). All BaF/3 mutant cells were maintained in RPMI 1640 (Cellgro; Mediatech Inc., Herndon, CA) supplemented with 10% FBS, 100 units/mL penicillin, 100 units/mL streptomycin.
# (§4) Growth and inhibition of growth was assessed by the Cell Titer Glo assay (Promega, Madison, WI) and was performed according to the manufacturer's instructions. The Cell Titer Glo assay is a luminescence-based method used to determine the number of viable cells based on quantitation of the ATP present, which is directly proportional to the amount of metabolically active cells present. Ba/F3 cells of different EGFR genotypes were exposed to compounds for 72 hours and the number of cells used per experiment was determined empirically as has been previously established (Zhou, et al., Nature 2009). All experimental points were set up in triplicates in 384-well plates. […] The curves were fitted using a non-linear regression model with a sigmoidal dose response.
# (§5) Ba/F3 cells assay data are provided below in Table 5 and Table 6. For inhibitory activity against EGFR mutants, the following designations are used: <0.1 μM=A, 0.1 μM˜0.5 μM=B, 0.5 μM˜2.5 μM=C, ≥2.5 μM=D
# [2] = biological target: EGFR L858R/C797S Ba/F3 cells (Homo sapiens, UniProt P00533, C797S/L858R, cells depend on it); experiment: Ba/F3 cell proliferation (Cell Titer Glo), EGFR L858R/C797S; assay type: cell-based, murine; conditions: 72 hours, Table 6
# Excerpt: as §3, §4, §5
# EGFR L858R/T790M, sequence (P00533 25-1210 T790M/L858R): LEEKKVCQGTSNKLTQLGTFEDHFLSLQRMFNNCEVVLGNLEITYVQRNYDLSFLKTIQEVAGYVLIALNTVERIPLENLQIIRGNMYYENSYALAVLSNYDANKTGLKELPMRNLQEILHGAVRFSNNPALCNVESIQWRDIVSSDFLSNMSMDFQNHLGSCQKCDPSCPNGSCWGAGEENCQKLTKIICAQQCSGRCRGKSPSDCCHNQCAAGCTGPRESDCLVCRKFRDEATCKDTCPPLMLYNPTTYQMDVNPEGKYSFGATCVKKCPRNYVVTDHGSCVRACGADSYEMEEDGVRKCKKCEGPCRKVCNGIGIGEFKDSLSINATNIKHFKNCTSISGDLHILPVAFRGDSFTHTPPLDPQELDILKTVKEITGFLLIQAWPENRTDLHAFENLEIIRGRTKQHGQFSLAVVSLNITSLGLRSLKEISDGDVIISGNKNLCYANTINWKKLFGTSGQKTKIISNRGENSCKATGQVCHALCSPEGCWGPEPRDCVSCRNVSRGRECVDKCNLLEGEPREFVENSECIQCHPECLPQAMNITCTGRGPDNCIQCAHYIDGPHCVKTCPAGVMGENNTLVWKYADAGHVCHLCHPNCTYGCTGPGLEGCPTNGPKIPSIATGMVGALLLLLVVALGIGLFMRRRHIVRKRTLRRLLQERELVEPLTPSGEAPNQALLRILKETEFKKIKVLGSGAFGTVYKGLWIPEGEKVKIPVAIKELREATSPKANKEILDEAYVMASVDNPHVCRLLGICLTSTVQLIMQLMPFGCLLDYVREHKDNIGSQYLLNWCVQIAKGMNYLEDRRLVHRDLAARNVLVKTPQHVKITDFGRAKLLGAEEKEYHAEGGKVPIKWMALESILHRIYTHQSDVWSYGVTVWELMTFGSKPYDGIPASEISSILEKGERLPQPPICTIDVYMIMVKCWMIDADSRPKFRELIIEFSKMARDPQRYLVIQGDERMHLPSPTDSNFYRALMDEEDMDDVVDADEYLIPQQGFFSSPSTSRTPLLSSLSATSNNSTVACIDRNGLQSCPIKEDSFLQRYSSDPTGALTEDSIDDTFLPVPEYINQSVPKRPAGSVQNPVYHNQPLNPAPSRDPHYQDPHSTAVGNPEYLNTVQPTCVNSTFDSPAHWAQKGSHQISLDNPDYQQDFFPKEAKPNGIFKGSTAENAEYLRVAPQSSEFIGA
# EGFR L858R, sequence (P00533 25-1210 L858R): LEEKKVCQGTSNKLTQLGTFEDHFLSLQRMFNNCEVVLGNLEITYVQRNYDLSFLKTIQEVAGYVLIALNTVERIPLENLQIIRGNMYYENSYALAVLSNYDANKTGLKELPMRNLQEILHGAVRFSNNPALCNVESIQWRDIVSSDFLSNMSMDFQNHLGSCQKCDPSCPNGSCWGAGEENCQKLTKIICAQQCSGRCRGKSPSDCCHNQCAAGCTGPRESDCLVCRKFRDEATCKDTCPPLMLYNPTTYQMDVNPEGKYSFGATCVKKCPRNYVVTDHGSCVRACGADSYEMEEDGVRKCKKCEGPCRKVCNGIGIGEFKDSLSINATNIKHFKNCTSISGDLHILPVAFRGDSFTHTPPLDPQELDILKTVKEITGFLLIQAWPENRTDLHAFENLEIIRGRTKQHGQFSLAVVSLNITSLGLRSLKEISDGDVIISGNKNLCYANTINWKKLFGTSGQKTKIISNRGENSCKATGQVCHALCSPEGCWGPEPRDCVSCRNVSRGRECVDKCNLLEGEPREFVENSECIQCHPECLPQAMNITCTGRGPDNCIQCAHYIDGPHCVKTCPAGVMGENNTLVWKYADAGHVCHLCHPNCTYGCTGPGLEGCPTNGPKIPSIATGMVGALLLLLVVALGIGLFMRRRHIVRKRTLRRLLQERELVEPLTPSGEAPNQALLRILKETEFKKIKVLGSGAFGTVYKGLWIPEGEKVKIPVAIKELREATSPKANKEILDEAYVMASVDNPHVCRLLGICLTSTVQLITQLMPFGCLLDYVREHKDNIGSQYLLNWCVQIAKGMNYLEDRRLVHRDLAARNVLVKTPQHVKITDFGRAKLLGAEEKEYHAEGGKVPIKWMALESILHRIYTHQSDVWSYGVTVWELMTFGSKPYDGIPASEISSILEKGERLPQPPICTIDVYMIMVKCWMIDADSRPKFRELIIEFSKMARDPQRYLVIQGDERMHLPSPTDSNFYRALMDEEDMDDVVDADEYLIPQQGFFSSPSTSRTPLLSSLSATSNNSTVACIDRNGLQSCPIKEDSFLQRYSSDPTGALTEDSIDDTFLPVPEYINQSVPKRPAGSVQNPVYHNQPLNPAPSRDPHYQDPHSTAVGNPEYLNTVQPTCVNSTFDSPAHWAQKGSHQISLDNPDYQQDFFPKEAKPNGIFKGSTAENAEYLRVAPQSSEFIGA
# EGFR L858R/C797S Ba/F3 cells, sequence (P00533 whole entry C797S/L858R): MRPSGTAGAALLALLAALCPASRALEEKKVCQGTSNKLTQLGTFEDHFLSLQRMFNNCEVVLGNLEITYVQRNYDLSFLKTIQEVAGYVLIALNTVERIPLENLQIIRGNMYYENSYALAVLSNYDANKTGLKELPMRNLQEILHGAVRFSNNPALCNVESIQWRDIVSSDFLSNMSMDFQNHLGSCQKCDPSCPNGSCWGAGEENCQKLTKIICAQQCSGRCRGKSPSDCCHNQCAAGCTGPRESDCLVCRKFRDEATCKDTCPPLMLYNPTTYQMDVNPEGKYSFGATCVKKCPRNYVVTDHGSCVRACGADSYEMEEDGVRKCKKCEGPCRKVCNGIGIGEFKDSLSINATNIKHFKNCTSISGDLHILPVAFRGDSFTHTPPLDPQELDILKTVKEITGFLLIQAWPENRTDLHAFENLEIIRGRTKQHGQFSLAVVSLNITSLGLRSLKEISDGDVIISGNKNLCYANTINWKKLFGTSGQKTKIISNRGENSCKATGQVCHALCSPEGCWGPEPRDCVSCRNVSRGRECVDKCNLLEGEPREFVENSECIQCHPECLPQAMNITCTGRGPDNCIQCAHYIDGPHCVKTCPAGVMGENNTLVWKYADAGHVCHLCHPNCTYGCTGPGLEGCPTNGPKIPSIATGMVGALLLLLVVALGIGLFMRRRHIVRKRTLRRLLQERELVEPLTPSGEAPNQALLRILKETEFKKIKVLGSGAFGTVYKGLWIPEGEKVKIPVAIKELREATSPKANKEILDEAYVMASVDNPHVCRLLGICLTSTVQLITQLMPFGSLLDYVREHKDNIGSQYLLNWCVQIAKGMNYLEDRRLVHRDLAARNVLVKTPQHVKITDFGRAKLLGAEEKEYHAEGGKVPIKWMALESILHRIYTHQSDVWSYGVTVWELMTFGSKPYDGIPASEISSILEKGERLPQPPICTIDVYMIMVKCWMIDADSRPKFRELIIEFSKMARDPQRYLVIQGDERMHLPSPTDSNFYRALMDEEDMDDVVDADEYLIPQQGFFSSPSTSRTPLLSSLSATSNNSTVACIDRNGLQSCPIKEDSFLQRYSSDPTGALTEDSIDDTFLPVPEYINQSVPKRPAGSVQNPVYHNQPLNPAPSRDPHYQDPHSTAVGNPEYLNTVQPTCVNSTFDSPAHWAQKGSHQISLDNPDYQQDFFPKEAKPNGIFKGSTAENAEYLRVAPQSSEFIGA
# EGFR mutant L858R Ba/F3 cells, sequence (P00533 whole entry L858R, the tested form may be a part): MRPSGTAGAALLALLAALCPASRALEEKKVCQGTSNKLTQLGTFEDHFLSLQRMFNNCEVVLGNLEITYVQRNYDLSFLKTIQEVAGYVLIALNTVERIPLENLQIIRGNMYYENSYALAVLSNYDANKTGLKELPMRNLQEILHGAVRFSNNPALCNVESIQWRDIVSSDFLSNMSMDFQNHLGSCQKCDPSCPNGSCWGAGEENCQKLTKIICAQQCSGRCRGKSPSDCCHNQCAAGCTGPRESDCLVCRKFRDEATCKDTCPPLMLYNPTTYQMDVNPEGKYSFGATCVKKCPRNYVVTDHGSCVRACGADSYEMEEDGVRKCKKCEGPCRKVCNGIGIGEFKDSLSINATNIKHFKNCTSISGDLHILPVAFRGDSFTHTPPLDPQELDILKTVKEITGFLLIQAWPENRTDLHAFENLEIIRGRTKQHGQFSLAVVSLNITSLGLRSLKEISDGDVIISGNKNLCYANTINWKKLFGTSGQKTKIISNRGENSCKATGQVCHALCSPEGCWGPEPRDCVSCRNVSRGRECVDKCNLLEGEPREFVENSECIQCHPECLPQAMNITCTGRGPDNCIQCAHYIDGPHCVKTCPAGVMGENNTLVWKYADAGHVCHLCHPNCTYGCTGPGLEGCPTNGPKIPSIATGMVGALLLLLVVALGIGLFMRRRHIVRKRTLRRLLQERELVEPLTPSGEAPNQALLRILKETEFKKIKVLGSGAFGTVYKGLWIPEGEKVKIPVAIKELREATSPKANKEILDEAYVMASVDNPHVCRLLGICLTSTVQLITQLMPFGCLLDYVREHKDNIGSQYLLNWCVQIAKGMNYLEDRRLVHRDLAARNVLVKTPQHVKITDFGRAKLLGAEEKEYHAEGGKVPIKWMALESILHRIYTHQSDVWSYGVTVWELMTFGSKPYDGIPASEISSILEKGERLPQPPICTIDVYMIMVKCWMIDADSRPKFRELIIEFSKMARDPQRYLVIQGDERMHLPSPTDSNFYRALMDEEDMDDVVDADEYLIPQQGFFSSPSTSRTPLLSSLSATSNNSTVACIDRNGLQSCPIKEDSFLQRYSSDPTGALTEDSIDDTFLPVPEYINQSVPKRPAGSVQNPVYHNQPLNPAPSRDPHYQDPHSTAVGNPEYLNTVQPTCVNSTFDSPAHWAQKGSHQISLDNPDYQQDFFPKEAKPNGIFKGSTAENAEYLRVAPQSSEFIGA
SMILES,IC50 (EGFR L858R),IC50 (EGFR L858R/T790M),GI50 [1],GI50 [2]
"C=CC(=O)N1CC[C@H](N2Cc3cnc(Nc4ccc(N5CCN(C)CC5)cc4)nc3N(C)C2=O)[C@H](N)C1 (relative stereo) [Compound 148, rel-(3R,4S)—S-(3-amino-1-prop-2-enoyl-4-piperidyl)-1-methyl-7-[4-(4-methylpiperazin-1-yl)anilino]-4H-pyrimido[4,5-d]pyrimidin-2-one]",> 1 µM,> 1 µM,≥ 2.5 µM,≥ 2.5 µM
"C=C(F)C(=O)N1CC[C@@H](N2Cc3cnc(Nc4cnn(CCO)c4)nc3N(C)C2=O)c2cccc(OC)c21 (single isomer, unassigned) [Compound 119]",> 0.1 µM,> 0.1 µM,≥ 2.5 µM,≥ 2.5 µM
"C=C(F)C(=O)N1CC[C@H](N2Cc3cnc(Nc4cnn(CCO)c4)nc3N(C)C2=O)c2cccc(OC)c21 (single isomer, unassigned) [Compound 120]",> 0.1 µM,> 0.1 µM,≥ 2.5 µM,≥ 2.5 µM
"C=CC(=O)N1CCC(N2Cc3cnc(Nc4ccc(N5CCN(C)CC5)cc4)nc3N(C)C2=O)[C@@H](N)C1 (stereo in doubt) [Compound 149, rel-(3S,4S)—S-(3-amino-1-prop-2-enoyl-4-piperidyl)-1-methyl-7-[4-(4-methylpiperazin-1-yl)anilino]-4H-pyrimido[4,5-d]pyrimidin-2-one]",> 1 µM,> 1 µM,≥ 2.5 µM,≥ 2.5 µM
C=C(F)C(=O)N1CCC(N2Cc3cnc(Nc4cnn(CCO)c4)nc3-n3ccnc32)c2ccccc21 (stereo not shown) [001A],> 0.1 µM,> 0.1 µM,≥ 2.5 µM,≥ 2.5 µM
"C=CC(=O)N1CCC2(N3Cc4cnc(Nc5ccc(OCCN6CCCC6)cc5)nc4N(C)C3=O)CC2C1 (stereo not drawn) [Compound 121, 1-methyl-S-(3-prop-2-enoyl-S-azabicyclo[4.1.0]heptan-6-yl)-7-[4-(2-pyrrolidin-1-ylethoxy)anilino]-4H-pyrimido[4,5-d]pyrimidin-2-one]",> 0.1 µM,> 0.1 µM,≥ 2.5 µM,≥ 2.5 µM
"C=CC(=O)N1CCC(n2c(=O)c3cnc(Nc4cnn(CCO)c4)nc3n(C)c2=O)c2ccccc21 (stereo not drawn) [Compound 122, 7-[[1-(2-hydroxyethyl)pyrazol-4-yl]amino]-1-methyl-S-(1-prop-2-enoyl-3,4-dihydro-2H-quinolin-4-yl)pyrimido[4,5-d]pyrimidine-2,4-dione]",> 0.1 µM,> 0.1 µM,0.1 to 0.5 µM,0.5 to 2.5 µM
"C=CC(=O)N1CCC(C)(N2Cc3cnc(Nc4cnn(CCO)c4)nc3N(C)C2=O)CC1 [Compound 125, 7-[[1-(2-hydroxyethyl)pyrazol-4-yl]amino]-1-methyl-S-(4-methyl-1-prop-2-enoyl-4-piperidyl)-4H-pyrimido[4,5-d]pyrimidin-2-one]",> 0.1 µM,> 0.1 µM,≥ 2.5 µM,≥ 2.5 µM
"C=CC(=O)N1CC[C@H](N2Cc3cnc(Nc4cnn(CCO)c4)nc3N(C)C2=O)[C@@H]2CCC[C@@H]21 [Compound 126, 7-[[1-(2-hydroxyethyl)pyrazol-4-yl]amino]-1-methyl-S-(1-prop-2-enoyl-2,3,4,4a, 5,6,7,7a-octahydrocyclopenta[b]pyridin-4-yl)-4H-pyrimido[4,5-d]pyrimidin-2-one]",> 0.1 µM,> 0.1 µM,≥ 2.5 µM,≥ 2.5 µM
[2H]C1(N2Cc3cnc(Nc4cnn(CCO)c4)nc3N(C)C2=O)CCN(C(=O)C=C)c2ccccc21 (stereo not shown) [Compound 127],0.0012 µM,> 0.7 µM,< 0.1 µM,< 0.1 µM
[2H]C1(N2Cc3cnc(Nc4ccc(OCCN5CCCC5)cc4)nc3N(C)C2=O)CCN(C(=O)C=C)c2ccccc21 (stereo not shown) [Compound 128],0.0009 µM,> 0.7 µM,< 0.1 µM,< 0.1 µM
"[2H]C1(N2Cc3cnc(Nc4ccc(N5CCN(C)CC5)cc4)nc3N(C)C2=O)CCN(C(=O)C=C)c2c(OC)cccc21 (stereo not shown) [Compound 130, 3-(4-deuterio-8-methoxy-1-prop-2-enoyl-2,3-dihydroquinolin-4-yl)-1-methyl-7-[4-(4-methylpiperazin-1-yl)anilino]-4H-pyrimido[4,5-d]pyrimidin-2-one]",0.043 µM,> 1 µM,< 0.1 µM,0.1 to 0.5 µM
"C=CC(=O)N1CCC(N2Cc3cnc(Nc4ccc(N5CCN(C)CC5)cc4)nc3N(C)C2=O)c2cnn(C)c21 (stereo not drawn) [Compound 132, 1-methyl-7-[4-(4-methylpiperazin-1-yl)anilino]-S-(1-methyl-7-prop-2-enoyl-5,6-dihydro-4H-pyrazolo[3,4-b]pyridin-4-yl)-4H-pyrimido[4,5-d]pyrimidin-2-one]",> 1 µM,> 1 µM,0.1 to 0.5 µM,0.1 to 0.5 µM

# Continued, values first:
IC50 (EGFR L858R),IC50 (EGFR L858R/T790M),GI50 [1],GI50 [2],SMILES
> 0.1 µM,> 0.1 µM,≥ 2.5 µM,≥ 2.5 µM,"C=CC(=O)N1CC[C@@H](N2Cc3cnc(Nc4cnn(CCO)c4)nc3N(C)C2=O)c2cccc(OC)c21 (single isomer, unassigned) [Compound 117]"
0.0629 µM,> 0.1 µM,≥ 2.5 µM,≥ 2.5 µM,"C=CC(=O)N1CCC(N2Cc3cnc(Nc4ccc(N5CCN(C)CC5)cc4)nc3N(C)C2=O)c2cccc(OC)c21 (single isomer, unassigned) [Compound 123]"
> 0.1 µM,> 0.1 µM,≥ 2.5 µM,,"C=CC(=O)N1CCC(N2Cc3cnc(Nc4ccc(N5CCN(C)CC5)cc4)nc3N(C)C2=O)c2cccc(OC)c21 (single isomer, unassigned) [Compound 124]"
0.0123 µM,0.0857 µM,< 0.1 µM,0.1 to 0.5 µM,"C=CC(=O)N1CC[C@@H](N2Cc3cnc(Nc4ccc(N5CCN(C)CC5)cc4)nc3N(C)C2=O)c2cccc(O)c21 (single isomer, unassigned) [Compound 155]"
0.00018 µM,0.00118 µM,< 0.1 µM,< 0.1 µM,"C=CC(=O)N1CCC(N2Cc3cnc(Nc4ccc(N5CCN(C)CC5)cc4)nc3N(C)C2=O)c2cccc(O)c21 (single isomer, unassigned) [Compound 156]"
> 0.1 µM,> 0.1 µM,0.1 to 0.5 µM,0.5 to 2.5 µM,C=CC(=O)N1CC[C@H](N2Cc3cnc(Nc4cnn(CCO)c4)nc3N(C)C2=O)c2cccc(OC)c21 [Compound 118]
0.00113 µM,0.01 µM,< 0.1 µM,< 0.1 µM,C=CC(=O)N1CCC(N2Cc3cnc(Nc4ccc(N5CCN(C)CC5)cc4)nc3N(C)C2=O)c2cccc(O)c21 (stereo not shown) [Compound 133]
0.0389 µM,> 1 µM,< 0.1 µM,0.1 to 0.5 µM,"C=CC(=O)N1CCC(N2Cc3cnc(Nc4ccc(N5CCN(C)CC5)cc4)nc3N(CC(F)F)C2=O)c2cccc(OC)c21 (stereo not shown) [Compound 134, 3-(1-acryloyl-8-methoxy-1,2,3,4-tetrahydroquinolin-4-yl)-1-(2,2-difluoroethyl)-7-((4-(4-methylpiperazin-1-yl)phenyl)amino)-3,4-dihydropyrimido[4,5-d]pyrimidin-2(1H)-one]"
,,< 0.1 µM,< 0.1 µM,"C=CC(=O)N1CC[C@H](N2Cc3cnc(Nc4ccc5c(c4)CCN(C)C5)nc3N(CCO)C2=O)c2cccc(C)c21 [Compound 154, 1-(2-hydroxyethyl)-7-[(2-methyl-3,4-dihydro-1 H-isoquinolin-6-yl)amino]-S-[(4S)-8-methyl-1-prop-2-enoyl-3,4-dihydro-2H-quinolin-4-yl]-4H-pyrimido[4,5-d]pyrimidin-2-one]"
